From patent US20240360151A1 (SANOFI, priority 2023, published 2024)

Columns and labels:
[1] = biological target: T1, NLRP3 inflammasome (Homo sapiens, UniProt Q96P20); assay: IL-1β secretion assay (NLRP3 IC50) in LPS-primed, nigericin-activated THP-1 cells, HTRF; format: cell-based; details: monocytic THP-1 cells; LPS 10 ng/mL 3 h priming, then compound + nigericin 10 μM 2 h; relative IC50, 10 concentrations, geometric mean
T1 construct: endogenous in cells; host or cells: THP-1 monocytic cells
Summary of the method: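 IL-1β in supernatant read by HTRF after 2 h co-incubation of compound (0.1% DMSO, 10 concentrations, 1:3 series) with nigericin at 10 μM final, following 3 h LPS (10 ng/mL) priming of THP-1 monocytes at 37° C. Inhibition normalised to unactivated and no-compound controls; geometric-mean relative IC50 from 4-parameter logistic model.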

[2] = tested on: NF-kB pathway (TNF-α secretion by THP-1 cells); assay: TNF-α secretion assay in LPS-stimulated THP-1 cells, Lumit immunoassay; format: cell-based, human; details: Homo sapiens, THP-1, 3 h, monocytic THP-1 cells, LPS 10 ng/mL, relative IC50, 10 concentrations, geometric mean
Summary of the method: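 TNF-α release was quantified directly in the cell plate by Lumit immunoassay after a 3-h, 10 ng/mL LPS trigger of compound-treated THP-1 cells (RPMI, 5% FBS). Percent inhibition versus no-compound and unstimulated controls fed a 4-parameter logistic fit over 10 concentrations, giving geometric-mean relative IC50.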

T1 sequence (Q96P20 whole entry): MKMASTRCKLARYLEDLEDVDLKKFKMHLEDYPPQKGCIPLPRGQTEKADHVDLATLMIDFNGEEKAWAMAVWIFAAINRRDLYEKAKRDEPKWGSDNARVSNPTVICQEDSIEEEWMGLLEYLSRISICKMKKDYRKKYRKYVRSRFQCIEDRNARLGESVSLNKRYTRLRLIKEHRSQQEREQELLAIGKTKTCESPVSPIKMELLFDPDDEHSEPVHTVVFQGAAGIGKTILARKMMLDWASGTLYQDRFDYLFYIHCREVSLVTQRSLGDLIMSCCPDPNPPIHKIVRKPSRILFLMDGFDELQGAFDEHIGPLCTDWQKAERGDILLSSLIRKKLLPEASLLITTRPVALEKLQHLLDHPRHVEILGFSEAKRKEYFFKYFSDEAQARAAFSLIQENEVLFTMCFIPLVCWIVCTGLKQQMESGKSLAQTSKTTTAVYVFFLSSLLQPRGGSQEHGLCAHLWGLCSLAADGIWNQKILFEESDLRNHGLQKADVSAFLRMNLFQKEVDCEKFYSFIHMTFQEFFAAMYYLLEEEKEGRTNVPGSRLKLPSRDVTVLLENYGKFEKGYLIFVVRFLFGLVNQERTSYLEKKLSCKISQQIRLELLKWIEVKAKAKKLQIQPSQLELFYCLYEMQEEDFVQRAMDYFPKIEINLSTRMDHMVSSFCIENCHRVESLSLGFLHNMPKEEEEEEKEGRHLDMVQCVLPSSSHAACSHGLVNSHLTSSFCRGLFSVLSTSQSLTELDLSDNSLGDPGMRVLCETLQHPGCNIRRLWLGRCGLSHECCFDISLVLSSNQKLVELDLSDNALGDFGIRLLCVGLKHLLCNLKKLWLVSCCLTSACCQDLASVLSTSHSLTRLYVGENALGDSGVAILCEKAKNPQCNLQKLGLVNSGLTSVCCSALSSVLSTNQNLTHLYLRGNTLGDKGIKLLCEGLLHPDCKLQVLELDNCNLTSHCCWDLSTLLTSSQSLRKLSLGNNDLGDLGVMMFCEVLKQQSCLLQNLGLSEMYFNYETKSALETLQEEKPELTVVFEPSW

| IC50 [1] | IC50 [2] | SMILES |
| --- | --- | --- |
| 0.151 µM | > 10 µM | Cc1ccc(-c2nnc(N3CCO[C@H](CO)C3)cc2C(F)F)c(O)c1 [Example 144, 2-[4-(difluoromethyl)-6-[(2S)-2-(hydroxymethyl)morpholin-4-yl]pyridazin-3-yl]-5-methyl-phenol] |
| 0.034 µM | > 10 µM | OC[C@@H]1CN(c2cc(C(F)F)c(-c3ccc(Cl)cc3O)nn2)CCO1 [Example 145, 5-chloro-2-[4-(difluoromethyl)-6-[(2S)-2-(hydroxymethyl)morpholin-4-yl]pyridazin-3-yl]phenol] |
| 0.052 µM | > 10 µM | Cc1cc(N2CCO[C@H](CO)C2)nnc1-c1c(C)cc(Cl)cc1O [Example 149, 5-chloro-2-[6-[(2S)-2-(hydroxymethyl)morpholin-4-yl]-4-methyl-pyridazin-3-yl]-3-methyl-phenol] |
| 0.047 µM | > 10 µM | Cc1cc(O)c(-c2ccc(N3CCO[C@H](CO)C3)nn2)c(C(F)F)c1 [Example 153, 3-(difluoromethyl)-2-[6-[(2S)-2-(hydroxymethyl)morpholin-4-yl]pyridazin-3-yl]-5-methyl-phenol] |
| 0.461 µM | > 10 µM | Cc1ccc(-c2nnc(N3CCO[C@H](CO)C3)cc2C(F)(F)F)c(O)c1 [Example 155, 2-[6-[(2S)-2-(hydroxymethyl)morpholin-4-yl]-4-(trifluoromethyl)pyridazin-3-yl]-5-methyl-phenol] |
| 0.085 µM | > 10 µM | Cc1cc(C)c(-c2cc(C#N)c(N3CCO[C@H](CO)C3)nn2)c(O)c1 [Example 158, 6-(2-hydroxy-4,6-dimethyl-phenyl)-3-[(2S)-2-(hydroxymethyl)morpholin-4-yl]pyridazine-4-carbonitrile] |
| 0.043 µM | > 10 µM | Cc1cc(C(F)(F)F)cc(O)c1-c1cc(C#N)c(N2CCO[C@H](CO)C2)nn1 [Example 159, 3-[(2S)-2-(hydroxymethyl)morpholin-4-yl]-6-[2-hydroxy-6-methyl-4-(trifluoromethyl)phenyl]pyridazine-4-carbonitrile] |
| 0.171 µM | > 10 µM | OC[C@@H]1CN(c2cc(C(F)(F)F)c(-c3ccc(Cl)cc3O)nn2)CCO1 [Example 160, 5-chloro-2-[6-[(2S)-2-(hydroxymethyl)morpholin-4-yl]-4-(trifluoromethyl)pyridazin-3-yl]phenol] |
| 0.028 µM | > 10 µM | Oc1cc(Cl)cc(Cl)c1-c1ccc(N2CCOC(CF)C2)nn1 (stereo not shown) [Example 161, 3,5-dichloro-2-[6-[2-(fluoromethyl)morpholin-4-yl]pyridazin-3-yl]phenol] |
| 0.01 µM | > 10 µM | Cc1cc(C)c(-c2ccc(N3CCOc4ccc(O)cc43)nn2)c(O)c1 [Example 162, 4-[6-(2-hydroxy-4,6-dimethyl-phenyl)pyridazin-3-yl]-2,3-dihydro-1,4-benzoxazin-6-ol] |
| 0.007 µM | > 10 µM | Cc1cc(Cl)cc(O)c1-c1cc(C#N)c(N2CCO[C@H](CO)C2)nn1 [Example 163, 6-(4-chloro-2-hydroxy-6-methyl-phenyl)-3-[(2S)-2-(hydroxymethyl)morpholin-4-yl]pyridazine-4-carbonitrile] |
| 0.081 µM | > 10 µM | CC(=O)NC[C@@H]1CCCN(c2ccc(-c3c(C)cc(C(F)(F)F)cc3O)nn2)C1 [Example 164, N-[[(3S)-1-[6-[2-hydroxy-6-methyl-4-(trifluoromethyl)phenyl]pyridazin-3-yl]-3-piperidyl]methyl]acetamide] |
| 0.042 µM | 5.62 µM | [2H]C([2H])(O)[C@@H]1CN(c2ccc(-c3c(C)cc(C)cc3O)nn2)CCO1 [Example 165, 2-[6-[(2S)-2-[dideuterio(hydroxy)methyl]morpholin-4-yl]pyridazin-3-yl]-3,5-dimethylphenol] |
| 0.309 µM | > 10 µM | CC(=O)NC[C@H]1CCCN(c2ccc(-c3c(C)cc(C(F)(F)F)cc3O)nn2)C1 [Example 167, N-[[(3R)-1-[6-[2-hydroxy-6-methyl-4-(trifluoromethyl)phenyl]pyridazin-3-yl]-3-piperidyl]methyl]acetamide] |
| 0.008 µM | > 10 µM | [2H]C([2H])(O)[C@@H]1CN(c2ccc(-c3c(C)cc(Cl)cc3O)nn2)CCO1 [Example 169, 5-chloro-2-[6-[(2S)-2-[dideuterio(hydroxy)methyl]morpholin-4-yl]pyridazin-3-yl]-3-methylphenol] |
| 0.012 µM | > 10 µM | Cc1cc(C)c(-c2cc(C(F)F)c(N3CCO[C@H](CO)C3)nn2)c(O)c1 [Example 170, 2-[5-(difluoromethyl)-6-[(2S)-2-(hydroxymethyl)morpholin-4-yl]pyridazin-3-yl]-3,5-dimethyl-phenol] |

| IC50 [1] | IC50 [2] | SMILES |
| --- | --- | --- |
| 0.007 µM | > 10 µM | Cc1cc(Cl)cc(O)c1-c1cc(C(F)F)c(N2CCO[C@H](CO)C2)nn1 [Example 171, 5-chloro-2-[5-(difluoromethyl)-6-[(2S)-2-(hydroxymethyl)morpholin-4-yl]pyridazin-3-yl]-3-methyl-phenol] |
| 0.036 µM | > 10 µM | Cc1cc(O)c(-c2ccc(N3CCO[C@H](CO)C3)nn2)c(Cl)c1 [Example 172, 3-chloro-2-[6-[(2S)-2-(hydroxymethyl)morpholin-4-yl]pyridazin-3-yl]-5-methyl-phenol] |
| 0.04 µM | > 10 µM | Cc1cc(C)c(-c2ccc(N3C[C@@H](CO)O[C@@H](CO)C3)nn2)c(O)c1 [Example 173, 2-[6-[(2R,6S)-2,6-bis(hydroxymethyl)morpholin-4-yl]pyridazin-3-yl]-3,5-dimethyl-phenol] |
| 0.17 µM | > 10 µM | Cc1cc(C)c(-c2ccc(N3CCOC(CF)C3)nn2)c(O)c1 (stereo not shown) [Example 174, 2-[6-[2-(fluoromethyl)morpholin-4-yl]pyridazin-3-yl]-3,5-dimethyl-phenol] |
| 0.091 µM | 7.38 µM | Cc1cc(O)c(-c2nnc(N3CCO[C@H](CO)C3)cc2C)c(Cl)c1 [Example 177, 3-chloro-2-[6-[(2S)-2-(hydroxymethyl)morpholin-4-yl]-4-methyl-pyridazin-3-yl]-5-methyl-phenol] |
| 0.007 µM | > 10 µM | Cc1cc(C(F)(F)F)cc(O)c1-c1ccc(N2C[C@@H](CO)O[C@@H](CO)C2)nn1 [Example 178, 2-[6-[(2R,6S)-2,6-bis(hydroxymethyl)morpholin-4-yl]pyridazin-3-yl]-3-methyl-5-(trifluoromethyl)phenol] |
| 0.066 µM | > 10 µM | Cc1cc(C)c(-c2cc(CO)c(N3CCO[C@H](CO)C3)nn2)c(O)c1 [Example 187, 2-[5-(hydroxymethyl)-6-[(2S)-2-(hydroxymethyl)morpholin-4-yl]pyridazin-3-yl]-3,5-dimethyl-phenol] |
| 0.414 µM | > 10 µM | Cc1cc(Cl)cc(O)c1-c1nnc(N2CCO[C@H](CO)C2)cc1CO [Example 188, 5-chloro-2-[4-(hydroxymethyl)-6-[(2S)-2-(hydroxymethyl)morpholin-4-yl]pyridazin-3-yl]-3-methyl-phenol] |
| 0.012 µM | > 10 µM | Cc1cc(Cl)cc(O)c1-c1cc(CO)c(N2CCO[C@H](CO)C2)nn1 [Example 189, 5-chloro-2-[5-(hydroxymethyl)-6-[(2S)-2-(hydroxymethyl)morpholin-4-yl]pyridazin-3-yl]-3-methyl-phenol] |
| 0.011 µM | > 10 µM | [2H]C([2H])(O)[C@@H]1CN(c2ccc(-c3c(C)cc(C(F)(F)F)cc3O)nn2)CCO1 [Example 192, 2-[6-[(2S)-2-[dideuterio(hydroxy)methyl]morpholin-4-yl]pyridazin-3-yl]-3-methyl-5-(trifluoromethyl)phenol] |
| 0.534 µM | 9.83 µM | Cc1cc(Cl)cc(O)c1-c1ccc(N2CCOc3cc(O)ccc32)nn1 [Example 193, 4-[6-(4-chloro-2-hydroxy-6-methyl-phenyl)pyridazin-3-yl]-2,3-dihydro-1,4-benzoxazin-7-ol] |
| 0.004 µM | > 10 µM | Cc1cc(C(F)(F)F)cc(O)c1-c1cc(C(F)F)c(N2CCO[C@H](CO)C2)nn1 [Example 194, 2-[5-(difluoromethyl)-6-[(2S)-2-(hydroxymethyl)morpholin-4-yl]pyridazin-3-yl]-3-methyl-5-(trifluoromethyl)phenol] |
| 0.452 µM | > 10 µM | Cc1cc(C)c(-c2ccc(N3CCNC4(CCOC4)C3)nn2)c(O)c1 (stereo not shown) [Example 196, 3,5-dimethyl-2-[6-(2-oxa-6,9-diazaspiro[4.5]decan-9-yl)pyridazin-3-yl]phenol] |
| 0.016 µM | > 10 µM | Cc1cc(C)c(-c2ccc(N3C[C@@H](CO)O[C@H](CO)C3)nn2)c(O)c1 [Example 198, 2-[6-[(2S,6S)-2,6-bis(hydroxymethyl)morpholin-4-yl]pyridazin-3-yl]-3,5-dimethyl-phenol] |
| 0.004 µM | > 10 µM | Cc1cc(C(F)(F)F)cc(O)c1-c1ccc(N2C[C@@H](CO)O[C@H](CO)C2)nn1 [Example 199, 2-[6-[(2S,6S)-2,6-bis(hydroxymethyl)morpholin-4-yl]pyridazin-3-yl]-3-methyl-5-(trifluoromethyl)phenol] |
| 0.023 µM | > 10 µM | Cc1cc(C(F)(F)F)cc(O)c1-c1ccc(N2C[C@H](CO)O[C@@H](CO)C2)nn1 [Example 200, 2-[6-[(2R,6R)-2,6-bis(hydroxymethyl)morpholin-4-yl]pyridazin-3-yl]-3-methyl-5-(trifluoromethyl)phenol] |
